Assay [1] concerns HIV-1. Particulars: Artico et al. 1995; cited from earlier work.
Assay [2] deals with HIV-1 reverse transcriptase. Particulars: McMahon et al. 1993; cited from earlier work.
In assay [3] the test system is HIV-1. The settings on record: in vitro, McMahon et al. 1993; cited from earlier work.
The subject of assay [4] is HIV-1. Nature of the assay: NCI in vitro anti-HIV drug screen: XTT-formazan assay, protection of T4 lymphocytes (CEM) from HIV-1 cytopathic effects. Type of assay: cell-based, human immunodeficiency virus (HIV-1). Particulars: for EC50 / inhibition at 200 µM / inhibition at 20 µM / inhibition at 2 µM / inhibition at 0.2 µM / inhibition at 63.2 µM / inhibition at 6.33 µM / inhibition at 0.634 µM / inhibition at 0.0635 µM: Human immunodeficiency virus 1, CCRF-CEM; for EC50: 144 h, HIV-1 infected CEM cells, 6 days, XTT, approximate values, read-out: EC50 (50% effective concentration against HIV cytopathic effects); for inhibition at 200 µM / inhibition at 20 µM / inhibition at 2 µM / inhibition at 0.2 µM / inhibition at 63.2 µM / inhibition at 6.33 µM / inhibition at 0.634 µM / inhibition at 0.0635 µM: read-out: Percent of Protection; for activity at 200 µM / activity at 20 µM / activity at 2 µM / activity at 0.2 µM / activity at 63.2 µM / activity at 6.33 µM / activity at 0.634 µM / activity at 0.0635 µM: Human immunodeficiency virus 1, Lymphocyte, read-out: Percent of Control, Infected; for TI50 (IC/EC), Therapeutic Index: IC50/EC50. The essentials:
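Protection from HIV-1 cytopathic killing was read spectrophotometrically via XTT formazan from viable cells after 6-day culture (37°, 5% CO2) of infected CEM cells with compound in half-log10 dilutions; drug-treated uninfected cells served as toxicity controls, AZT run alongside.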

The test system of assay [5] is T4 lymphocytes (CEM cell line). Nature of the assay: Cell growth / toxicity control in uninfected T4 lymphocytes (CEM), XTT-formazan. It counts as cell-based. The settings on record: for IC50: uninfected CEM cells, 6 days, XTT, approximate values, read-out: IC50 (50% inhibitory concentration for cell growth); for activity at 200 µM / activity at 20 µM / activity at 2 µM / activity at 0.2 µM / activity at 63.2 µM / activity at 6.33 µM / activity at 0.634 µM / activity at 0.0635 µM: read-out: Percent of Control, Uninfected. The method, boiled down: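 Toxicity control: compound, first dissolved in DMSO and serially diluted half-log10 to a final 1:200 dilution, incubated 6 days at 37° and 5% CO2 with CEM cells lacking HIV-1. Viable cells measured spectrophotometrically via XTT-derived formazan and checked microscopically.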
A general note: Formazan colour is commonly taken as a measure of viable cells.

Setting [6] is: Homo sapiens, CCRF-CEM, dose 2.00 × 10^-4 Molar.
Where [7] appears, read: Homo sapiens, CCRF-CEM, dose 2.00 × 10^-5 Molar.
Setting [8] is: Homo sapiens, CCRF-CEM, dose 2.00 × 10^-6 Molar.
Where [9] appears, read: Homo sapiens, CCRF-CEM, dose 2.00 × 10^-7 Molar.
The mark [10] stands for this setting: Homo sapiens, CCRF-CEM, dose 6.32 × 10^-5 Molar.
Where [11] appears, read: Homo sapiens, CCRF-CEM, dose 6.33 × 10^-6 Molar.
[12] abbreviates: Homo sapiens, CCRF-CEM, dose 6.34 × 10^-7 Molar.
The mark [13] stands for this setting: Homo sapiens, CCRF-CEM, dose 6.35 × 10^-8 Molar.

Each structure is given as a SMILES string. Like-named read-outs stand apart in the source and are kept apart here.

For the compound `CCOC(=O)c1cccn1S(=O)(=O)c1ccccc1[N+](=O)[O-]`, the anti-HIV-1 efficacy entry in assay [1] is “the most efficacy”.

For `O=[N+]([O-])c1ccccc1S(=O)(=O)c1ccccc1` [2-nitrophenyl phenylsulfone], the “inhibition of HIV-1 replication via inhibition of HIV-1 reverse transcriptase” value in assay [2] is recorded as “inhibition of HIV-1 replication via inhibition of HIV-1 reverse transcriptase”. The “protecting human cells in culture from HIV-1 cytopathic effects / preventing HIV-1 replication” value in assay [3] is “high efficacy”.

`CCNc1ccccc1S(=O)(=O)c1ccccc1[N+](=O)[O-]` [Compound 81, 2-(2-NITROPHENYLSULFONYL)-N-ETHYLANILINE]: in assay [4], the EC50 was 2.32 µM and the “TI50 (IC/EC), Therapeutic Index” value is listed as 1.39 × 10^+1. Besides, in assay [4] (dose 2.00 × 10^-4 Molar), the inhibition at 200 µM is 17.2% and the activity at 200 µM amounted to 43.7%. In assay [4] (dose 2.00 × 10^-5 Molar), the inhibition at 20 µM was found to be 53.6% and the activity at 20 µM worked out at 68.5%. In assay [4] (dose 2.00 × 10^-6 Molar), the inhibition at 2 µM was 46.1% and the activity at 2 µM is 63.3%. In addition, in assay [4] (dose 2.00 × 10^-7 Molar), the inhibition at 0.2 µM is 1.5% and the activity at 0.2 µM was determined as 33%. Moreover, in assay [4] (dose 6.32 × 10^-5 Molar), the inhibition at 63.2 µM was -15% and the activity at 63.2 µM worked out at 21.8%. For the same compound, in assay [4] (dose 6.33 × 10^-6 Molar), the inhibition at 6.33 µM was 81.4% and the activity at 6.33 µM worked out at 87.3%. Moreover, in assay [4] (dose 6.34 × 10^-7 Molar), the inhibition at 0.634 µM turned out to be 31.3% and the activity at 0.634 µM is 53.3%. In assay [4] (dose 6.35 × 10^-8 Molar), the inhibition at 0.0635 µM worked out at 5.99% and the activity at 0.0635 µM came to 36.1%. Besides, in assay [5] (Homo sapiens, CCRF-CEM, 144 h), the IC50 was 32.2 µM. In assay [5] (setting [6]), the activity at 200 µM is 13.7%. Besides, the activity at 20 µM in assay [5] (setting [7]) was determined as 68.6%. Moreover, the activity at 2 µM in assay [5] (setting [8]) was 89%. Moreover, the activity at 0.2 µM in assay [5] (setting [9]) stood at 70.7%. Further, the activity at 63.2 µM in assay [5] (setting [10]) was 23.6%. Besides, the activity at 6.33 µM in assay [5] (setting [11]) is 83.1%. For the same compound, the activity at 0.634 µM in assay [5] (setting [12]) worked out at 89.4%. For the same compound, in assay [5] (setting [13]), the activity at 0.0635 µM was determined as 93.7%.

In the case of `CNc1ccccc1S(=O)(=O)c1ccccc1Cl` [Compound 82, 2-(2-CHLOROPHENYSULFONYL)-N-METHYLANILINE], in assay [4], the EC50 is 29.7 µM and the “TI50 (IC/EC), Therapeutic Index” value is reported as 4.93 × 10^0. In assay [4] (dose 2.00 × 10^-4 Molar), the inhibition at 200 µM is 3.76% and the activity at 200 µM was found to be 34.6%. In assay [4] (dose 2.00 × 10^-5 Molar), the inhibition at 20 µM was determined as 41.4% and the activity at 20 µM is 60.1%. Besides, in assay [4] (dose 2.00 × 10^-6 Molar), the inhibition at 2 µM was -5.07% and the activity at 2 µM is 28.6%. For the same compound, in assay [4] (dose 2.00 × 10^-7 Molar), the inhibition at 0.2 µM was -22.6% and the activity at 0.2 µM came out at 16.6%. In assay [4] (dose 6.32 × 10^-5 Molar), the inhibition at 63.2 µM worked out at 68.1% and the activity at 63.2 µM amounted to 78.3%. In assay [4] (dose 6.33 × 10^-6 Molar), the inhibition at 6.33 µM was determined as 24.5% and the activity at 6.33 µM was 48.6%. Also, in assay [4] (dose 6.34 × 10^-7 Molar), the inhibition at 0.634 µM is -8.87% and the activity at 0.634 µM was 26%. Besides, in assay [4] (dose 6.35 × 10^-8 Molar), the inhibition at 0.0635 µM turned out to be 23.7% and the activity at 0.0635 µM is 48.1%. The IC50 in assay [5] (Homo sapiens, CCRF-CEM, 144 h) came to 146 µM. Further, in assay [5] (setting [6]), the activity at 200 µM was 33.9%. Besides, the activity at 20 µM in assay [5] (setting [7]) was found to be 78.2%. Further, the activity at 2 µM in assay [5] (setting [8]) stood at 91.2%. In addition, the activity at 0.2 µM in assay [5] (setting [9]) was found to be 60.8%. Moreover, the activity at 63.2 µM in assay [5] (setting [10]) amounted to 93.3%. In assay [5] (setting [11]), the activity at 6.33 µM was found to be 84.2%. The activity at 0.634 µM in assay [5] (setting [12]) is 96.1%. Besides, the activity at 0.0635 µM in assay [5] (setting [13]) was found to be 93.2%.

Turning to `CNc1ccccc1S(=O)(=O)c1ccc(Cl)cc1OC` [Compound 86, 2-(4-chloro-2-methoxyphenylsulfonyl)-N-methylaniline], in assay [4], the EC50 was 106 µM and the “TI50 (IC/EC), Therapeutic Index” value was > 1.88 × 10^0. Besides, in assay [4] (dose 2.00 × 10^-4 Molar), the inhibition at 200 µM turned out to be 78.8% and the activity at 200 µM was determined as 79.2%. In assay [4] (dose 2.00 × 10^-5 Molar), the inhibition at 20 µM was determined as 5.32% and the activity at 20 µM is 7.21%. For the same compound, in assay [4] (dose 2.00 × 10^-6 Molar), the inhibition at 2 µM was determined as 0.36% and the activity at 2 µM was determined as 2.35%. Besides, in assay [4] (dose 2.00 × 10^-7 Molar), the inhibition at 0.2 µM amounted to 1.18% and the activity at 0.2 µM worked out at 3.16%. Further, in assay [4] (dose 6.32 × 10^-5 Molar), the inhibition at 63.2 µM was 27.1% and the activity at 63.2 µM came out at 28.5%. For the same compound, in assay [4] (dose 6.33 × 10^-6 Molar), the inhibition at 6.33 µM stood at 1.52% and the activity at 6.33 µM is 3.49%. Besides, in assay [4] (dose 6.34 × 10^-7 Molar), the inhibition at 0.634 µM worked out at 1.22% and the activity at 0.634 µM amounted to 3.2%. In addition, in assay [4] (dose 6.35 × 10^-8 Molar), the inhibition at 0.0635 µM was 0.03% and the activity at 0.0635 µM turned out to be 2.03%. The IC50 in assay [5] (Homo sapiens, CCRF-CEM, 144 h) was greater than 200 µM. Moreover, the activity at 200 µM in assay [5] (setting [6]) came out at 83.9%. In addition, the activity at 20 µM in assay [5] (setting [7]) was 88.3%. Moreover, the activity at 2 µM in assay [5] (setting [8]) is 96.5%. Also, in assay [5] (setting [9]), the activity at 0.2 µM came out at 91.7%. Moreover, in assay [5] (setting [10]), the activity at 63.2 µM is 95.9%. For the same compound, the activity at 6.33 µM in assay [5] (setting [11]) was found to be 94.8%. In addition, the activity at 0.634 µM in assay [5] (setting [12]) amounted to 97.1%. The activity at 0.0635 µM in assay [5] (setting [13]) came to 95.8%.

Take `CNc1ccccc1S(=O)(=O)c1ccccc1[N+](=O)[O-]` [Example 22, 2-(2-nitrophenylsulfonyl)-N-methylaniline]: the “TI50 (IC/EC), Therapeutic Index” value in assay [4] is recorded as 1.80 × 10^+2. For the same compound, the “Percent of Control, Infected” value in assay [4] (dose 2.00 × 10^-4 Molar) is 6.35%; in assay [4] (dose 2.00 × 10^-5 Molar), 43.49%; in assay [4] (dose 2.00 × 10^-6 Molar), 107.31%; in assay [4] (dose 2.00 × 10^-7 Molar), 99.97%; in assay [4] (dose 6.32 × 10^-5 Molar), 5.67%; in assay [4] (dose 6.33 × 10^-6 Molar), 100.65%. Also, the “Percent of Control, Infected” value in assay [4] (dose 6.34 × 10^-7 Molar) was found to be 110.38%; in assay [4] (dose 6.35 × 10^-8 Molar), 88.79%. The “Percent of Protection” value in assay [4] (dose 2.00 × 10^-4 Molar, 200 µM) was 1.42%; in assay [4] (dose 2.00 × 10^-5 Molar, 20 µM), 40.52%; in assay [4] (dose 2.00 × 10^-6 Molar, 2 µM), 107.69%; in assay [4] (dose 2.00 × 10^-7 Molar, 0.2 µM), 99.97%; in assay [4] (dose 6.32 × 10^-5 Molar, 63.2 µM) it was 0.71%; in assay [4] (dose 6.33 × 10^-6 Molar, 6.33 µM), 100.68%. For the same compound, the “Percent of Protection” value in assay [4] (dose 6.34 × 10^-7 Molar, 0.634 µM) amounted to 110.93%; in assay [4] (dose 6.35 × 10^-8 Molar, 0.0635 µM), 88.20%. Further, the “Percent of Control, Uninfected” value in assay [5] (dose 2.00 × 10^-4 Molar) was 1.98%; in assay [5] (dose 2.00 × 10^-5 Molar), 36.62%; in assay [5] (dose 2.00 × 10^-6 Molar) it was 88.74%; in assay [5] (dose 2.00 × 10^-7 Molar), 92.07%; in assay [5] (dose 6.32 × 10^-5 Molar) it was 15.40%; in assay [5] (dose 6.33 × 10^-6 Molar), 87.28%. For the same compound, the “Percent of Control, Uninfected” value in assay [5] (dose 6.34 × 10^-7 Molar) was determined as 97.06%; in assay [5] (dose 6.35 × 10^-8 Molar) it was 96.33%. The IC50 in assay [5] was found to be 14.8 µM.

The values are drawn from US6303630A, “Diarylsulfone non-nucleoside reverse transcriptase inhibitors of human immunodeficiency virus” (University of the Sciences in Philadelphia, priority 2000, dated 2001).
